Test results published in patent publication US7566786B2, “Quinoline derivatives as phosphodiesterase inhibitors” (Glaxo Group Limited, priority 2003, dated 2009).
Structures can show the parent of a compound that is named as a salt.

Key:
PDE5 (human recombinant) = PDE5 (human recombinant) (Homo sapiens, UniProt O76074); experiment: Inhibition of PDE5 activity: Radioactive Scintillation Proximity Assay (SPA); format: biochemical; details: read-out: PDE5 mean pIC50 (converted)
Description: Human recombinant PDE5 is disclosed in K. Loughney et al., “Isolation and characterisation of cDNAs encoding PDE5A, a human cGMP-binding, cGMP-specific 3′,5′-cyclic nucleotide phosphodiesterase”, Gene, 1998, 216, 139-147.
(§1) 2. Inhibition of PDE3, PDE4B, PDE4D, PDE5 or PDE6 Activity: Radioactive Scintillation Proximity Assay (SPA)
(§2) The ability of compounds to inhibit catalytic activity at PDE4B or 4D (human recombinant), PDE3 (from bovine aorta), PDE5 (human recombinant) or PDE 6 (from bovine retina) was determined by Scintillation Proximity Assay (SPA) in 96-well format. Test compounds (preferably as a solution in DMSO, e.g. 2 microlitre (μl) volume) were preincubated at ambient temperature in Wallac Isoplates (code 1450-514) with PDE enzyme in 50 mM Tris-HCl buffer pH 7.5, 8.3 mM MgCl2, 1.7 mM EGTA, 0.05% (w/v) bovine serum albumin for 10-30 minutes. The enzyme concentration was adjusted so that no more than 20% hydrolysis of the substrate occurred in control wells without compound, during the incubation. For the PDE3, PDE4B and PDE4D assays [5′,8-^3H]adenosine 3′,5′-cyclic phosphate (Amersham Pharmacia Biotech, code TRK.559 or Amersham Biosciences UK Ltd, Pollards Wood, Chalfont St Giles, Buckinghamshire HP8 4SP, UK) was added to give 0.05 μCi per well and ˜10 nM final concentration. For the PDE5 and PDE6 assays [8-^3H]guanosine 3′,5′-cyclic phosphate (Amersham Pharmacia Biotech , code TRK.392) was added to give 0.05 μCi per well and ˜36 nM final concentration. Plates e.g. containing approx. 100 μl volume of assay mixture were mixed on an orbital shaker for 5 minutes and incubated at ambient temperature for 1 hour. Phosphodiesterase SPA beads (Amersham Pharmacia Biotech, code RPNQ 0150) suspended in buffer were added (˜1 mg per well) to terminate the assay. Plates were sealed and shaken and allowed to stand at ambient temperature for 35 minutes to 1 hour to allow the beads to settle. Bound radioactive product was measured using a WALLAC TRILUX 1450 Microbeta scintillation counter. […] Curves were analysed using
(§3) ActivityBase and XLfit (ID Business Solutions Limited, 2 Ocean Court, Surrey Research Park, Guildford, Surrey GU2 7QB, United Kingdom). Results were expressed as pIC50 values.

[1] = target: T1, PDE4B (human recombinant) (Homo sapiens, UniProt Q07343); experiment: Inhibition of PDE4B activity: Radioactive Scintillation Proximity Assay (SPA); format: biochemical; details: SPA or FP format not given; for IC50: read-out: PDE4B mean pIC50 (converted)
T1 construct: made in house
Description: Human recombinant PDE4B, in particular the 2B splice variant thereof (HSPDE4B2B), is disclosed in WO 94/20079 and also in M. M. McLaughlin et al., “A low Km, rolipram-sensitive, cAMP-specific phosphodiesterase from human brain: cloning and expression of cDNA, biochemical characterisation of recombinant protein, and tissue distribution of mRNA”, J. Biol. Chem., 1993, 268, 6470-6476. For example, in Example 1 of WO 94/20079, human recombinant PDE4B is described as being expressed in the PDE-deficient yeast Saccharomyces cerevisiae strain GL62, e.g. after induction by addition of 150 μM CuSO4, and 100,000×g supernatant fractions of yeast cell lysates are described for use in the harvesting of PDE4B enzyme.
as §1, §2, §3

T1 sequence (Q07343 1-564 isoform Q07343-2): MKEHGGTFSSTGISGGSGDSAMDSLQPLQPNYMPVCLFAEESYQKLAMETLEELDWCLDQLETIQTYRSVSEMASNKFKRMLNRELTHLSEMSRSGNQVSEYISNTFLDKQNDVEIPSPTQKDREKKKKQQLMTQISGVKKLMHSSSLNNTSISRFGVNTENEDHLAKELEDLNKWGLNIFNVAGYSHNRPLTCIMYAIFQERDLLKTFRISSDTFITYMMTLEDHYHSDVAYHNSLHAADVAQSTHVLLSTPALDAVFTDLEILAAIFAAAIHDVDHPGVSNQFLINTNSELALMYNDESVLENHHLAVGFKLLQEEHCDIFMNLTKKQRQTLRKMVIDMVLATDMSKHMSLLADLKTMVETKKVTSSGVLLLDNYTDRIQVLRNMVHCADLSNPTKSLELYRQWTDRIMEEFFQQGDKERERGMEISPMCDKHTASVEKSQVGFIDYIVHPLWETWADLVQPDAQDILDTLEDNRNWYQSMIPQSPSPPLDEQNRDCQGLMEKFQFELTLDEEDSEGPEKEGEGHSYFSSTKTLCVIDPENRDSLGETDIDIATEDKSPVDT

Compound	IC50 (PDE5 (human recombinant))	IC50 [1]	PDE4B mean pIC50 [1]
CN(C)c1cccc(Nc2c(C(N)=O)cnc3ccc(S(=O)(=O)C4CCCC4)cc23)c1 [Example 92]	> 31600 nM	20 nM	
Cc1cc(S(C)(=O)=O)cc2c(Nc3cccc(C#N)c3)c(C(N)=O)cnc12 [Example 312, 4-[(3-cyanophenyl)amino]-8-methyl-6-(methylsulfonyl)-3-quinolinecarboxamide]	> 31600 nM		9.4
COc1cccc(Nc2c(C(N)=O)cnc3c(C)cc(S(=O)(=O)c4ccc(OC)c(OC)c4)cc23)c1 [Example 380, 6-{[3,4-bis(methyloxy)phenyl]sulfonyl}-8-methyl-4-{[3-(methyloxy)phenyl]amino}-3-quinolinecarboxamide]	> 100 nM	0.00398 nM	
COc1cccc(Nc2c(C(N)=O)cnc3c(C)cc(S(=O)(=O)c4cncc(C(=O)N(C)C)c4)cc23)c1 [Example 546, 6-({5-[(dimethylamino)carbonyl]-3-pyridinyl}sulfonyl)-8-methyl-4-{[3-(methyloxy)phenyl]amino}3-quinolinecarboxamide hydrochloride]	20000 nM	0.02 nM	
Cc1cc(S(=O)(=O)C2CCN(C(=O)c3ccco3)CC2)cc2c(Nc3cccc4c3CCO4)c(C(N)=O)cnc12 [Example 446, 4-(2,3-dihydro-1-benzofuran-4-ylamino)-6-{[1-(2-furanylcarbonyl)-4-piperidinyl]sulfonyl}-8-methyl-3-quinolinecarboxamide]	> 31600 nM	0.00501 nM	
COc1ccc(S(=O)(=O)c2cc(C)c3ncc(C(N)=O)c(Nc4cccc(OC)c4)c3c2)cc1 [Example 265, 8-methyl-4-{[3-(methyloxy)phenyl]amino}-6-{[4-(methyloxy)phenyl]sulfonyl}-3-quinolinecarboxamide]	6310 nM	0.00501 nM	
Cc1cccc(Nc2c(C(N)=O)cnc3c(Cl)cc(S(C)(=O)=O)cc23)c1 [Example 369, 8-chloro-4-[(3-methylphenyl)amino]-6-(methylsulfonyl)-3-quinolinecarboxamide]	7940 nM	0.316 nM	
Cc1cc(S(C)(=O)=O)cc2c(Nc3ccc4cnn(C)c4c3)c(C(N)=O)cnc12 [Example 309, 8-methyl-4-[(1-methyl-1H-indazol-6-yl)amino]-6-(methylsulfonyl)-3-quinolinecarboxamide]	> 12600 nM	0.0794 nM	
Cc1cc(S(=O)(=O)CCNS(C)(=O)=O)cc2c(Nc3cccc4c3CCO4)c(C(N)=O)cnc12 [Example 457, 4-(2,3-dihydro-1-benzofuran-4-ylamino)-8-methyl-6-({2-[(methylsulfonyl)amino]ethyl}sulfonyl)-3-quinolinecarboxamide]	> 3160 nM	0.01 nM	
COc1cccc(Nc2c(C(N)=O)cnc3ccc(S(C)(=O)=O)cc23)c1 [Example 27, 4-{[3-(methyloxy)phenyl]amino}-6-(methylsulfonyl)-3-quinolinecarboxamide]	15800 nM		
COc1cccc(Nc2c(C(N)=O)cnc3ccc(S(=O)(=O)c4cccc(C(=O)N(C)C)c4)cc23)c1 [Example 400, 6-({3-[(dimethylamino)carbonyl]phenyl}sulfonyl)-4-{[3-(methyloxy)phenyl]amino}-3-quinolinecarboxamide]	> 10000 nM	0.01 nM	
Cc1cc(S(=O)(=O)c2cccc(C(=O)N(C)C)c2)cc2c(Nc3cccc(C#N)c3)c(C(N)=O)cnc12 [Example 408, 4-[(3-cyanophenyl)amino]-6-({3-[(dimethylamino)carbonyl]phenyl}sulfonyl)-8-methyl-3-quinolinecarboxamide]		0.00398 nM	
Cc1cc(S(C)(=O)=O)cc2c(Nc3cc(F)cc(F)c3)c(C(N)=O)cnc12 [Example 502, 4-[(3,5-difluorophenyl)amino]-8-methyl-6-(methylsulfonyl)-3-quinolinecarboxamide]	> 10000 nM	1.26 nM	
Cc1cc(S(C)(=O)=O)cc2c(Nc3cccc4c3CCO4)c(C(N)=O)cnc12 [Example 307, 4-(2,3-dihydro-1-benzofuran-4-ylamino)-8-methyl-6-(methylsulfonyl)-3-quinolinecarboxamide]	> 25100 nM	0.0316 nM	
COc1cccc(Nc2c(C(N)=O)cnc3c(C)cc(S(=O)(=O)c4cccc(C(=O)N(C)C)c4)cc23)c1 [Example 399, 6-({3-[(dimethylamino)carbonyl]phenyl}sulfonyl)-8-methyl-4-{[3-(methyloxy)phenyl]amino}-3-quinolinecarboxamide]	2510 nM	< 0.00251 nM	
